Measured values reported in patent publication US20240297323A1, “BIOBASED AQUEOUS ORGANIC-BASED ELECTROLYTE IN AQUEOUS ORGANIC REDOX FLOW BATTERY” (KEMIWATT, priority 2021, published 2024).
Values after ≈ are worked out from the molar mass of the structure shown. Where two headings read alike, the source gives them in different places.

Assays:
[1] = redox-active molecules used in negolytes in ARFBs; cited from earlier work
[2] = Water solubility by shake-flask method in alkaline aqueous solution; format: physicochemical; conditions: for solubility: aqueous buffer, thermodynamic from solid
Procedure: The solubility of the compounds was evaluated in aqueous solution at various pH by shake-flask method. An aqueous solution (containing either KOH 1 M, NaOH 1 M, or a mixture of KOH 0.5 M and NaOH 0.5 M) is added over 100 mg of compound by 20 μL portions until complete solubilization. We obtain an approximate range of solubility values calculated as following:
Smax˜(m/M)/V; m=mass of evaluated compound(g);M=molar mass of evaluated compound(g·mol^−1);V=added volume(L).

[3] = Post-cycling analyses of the negolyte (cyclic voltammetry and 1H NMR before and after cycling); format: physicochemical; conditions: for chemical stability in the application: conclusion from cycling and post-cycling analyses; for degradation during the cycling test (1H NMR in D2O before/after): negolyte after cycling
Procedure: FIG. 3: Cyclic voltammetry (3rd cycle) of the negolyte (black line) before the cycling test and (grey line) after cycling test, recorded at a scan rate of 100 mV·s^−1.
FIG. 4: ^1H NMR spectra of the negolyte, recorded in D2O between 0 and 10 ppm, (black line) before and (grey line) after the cycling test.
A preliminary electrochemical test was performed on the negolyte before and after the cycling test (FIG. 3).
Further analyses were performed using ^1H NMR spectroscopy, see FIG. 4.
A preliminary electrochemical test was performed on the negolyte before and after thousands of cycles and a few months of cycling test (FIG. 7).
Further analyses were performed using ^1H NMR spectroscopy, see FIG. 8.
A preliminary electrochemical test was performed on the negolyte before and after the cycling test (FIG. 10) which lasted for more than 1000 cycles, or 25 days of constant cycling.
Further analyses were performed using ^1H NMR spectroscopy, see FIG. 11.

[4] = Electrochemical properties at diluted state (cyclic voltammetry, RDE linear sweep voltammetry); format: physicochemical; conditions: for k^0′O × 10^−2 apparent heterogeneous rate constant: Gileadi's equation, transfer coefficient 0.5; for E1/2 half-wave potential: LSV with RDE, 400 up to 1 000 RPM, pH 14; for DO × 10^−6 diffusion coefficient: Randles-Sevcik, scan rates 10 mV/s up to 20 V/s; for Peak-to-peak separation ΔEp at pH 14: pH 14 (KOH 1 M), 5.10^−3 M, scan rate 100 mV·s^−1, third cycle
Procedure: Cyclic voltammetry experiments were performed at a 100 mV/s scan rate for compounds A, B and B-M3CH in a solution at pH 14 (KOH 1 M).
The electrochemical experiments were conducted on an electrochemical working station (BioLogic Science Instruments VSP) at 25° C. using a three-electrodes electrochemical cell, where a Pt wire was employed at the counter electrode (CE), an Ag/AgCl/KCl saturated electrode immerged in a 1 M KOH solution protected from the cell by a porous frit glass served as the reference electrode (RE) and a rotating disc electrode (RDE) mounted with a glassy carbon (GC, 7.069 mm^2) disk was used as the working electrode (WE), respectively. The potential was reported relative to the normal hydrogen electrode (NHE), which was converted from the Ag/AgCl reference electrode (0.230 V versus NHE). The ohmic drop between the WE and RE is determined by current interrupt experiments and leads to a value close to 0.7069 Ω·cm^2. All cyclic voltammetry experiments were conducted by alleviating most of this resistance (85%) using the potentiostat manual ohmic drop compensation. Before each electrochemical measurement, the GC disk electrode was polished using SiC P4000 foil.
Each recorded cyclic voltammetry of the reduction and the oxidation process of a compound at a given scan rate is analyzed by measuring ip,a=anodic peak current; ip,c=cathodic peak current; v=scan rate; Ep,a=anodic peak potential; Ep,c=cathodic peak potential; ΔEp=Ep,a−Ep,c; the apparent standard redox potential E^0′=[…].
Linear sweep voltammetry (LSV) using the RDE at various rotation speed (400 up to 1 000 RPM) were performed to determine the averaged half-wave potential E1/2.
The oxidation (DO) and the reduction (DR) diffusion coefficients were calculated using Randles-Sevcik (RS) equation ip=0.4463.n^3/2.F^3/2.A.C.v^1/2.D^1/2.R^−1/2.T^−1/2=Cte.v^1/2.D^1/2, n=number of electrons exchanged during the redox process; F=faradaic number=96485 C·mol^−1; A=electrode active surface; C=redox active molecule concentration; R=gas constant=8.314 J·K^−1·mol^−1; T=bulk temperature=299 K. The experiments are conducted by cyclic voltammetry at various scan rates ranging from 10 mV/s up to 20 V/s.
A graphic of |ip,a| and |ip,c|=f(Cte.v^1/2) is plotted, if the redox process is reversible and diffusion controlled, the peak current should be proportional to the square root of the scan rate. The diffusion coefficients (oxidation and reduction) are then calculated by taking the square of the regression lines slopes. Diffusion coefficients (oxidation and reduction processes) are evaluated by plotting the peak current versus a constant multiplied by the square root of the scan rate. The plots regression line gives a straight line with perfect correlation coefficient (100%) confirming that the redox process is reversible and diffusion controlled. The square of each slope gives the associated coefficient diffusion in cm^2·s^−1.
The apparent heterogeneous rate constant during reduction (k^0′O) process was calculated using Gileadi's equation (C. Russel, W. Jaenicke, Electrochimica Acta, Vol 27, No. 12, 1745-1750, 1982) log k^0′=−0.48.α+0.52+log[(n.F.α.vc.D)/(2.303.R.T)]^1/2; vc is the critical scan rate, it is calculated by plotting the peak potentials versus the logarithm of the scan rates, and is more precise when a very wide range of scan rates is used, which is the case here (0.010 up to 20 V·s^−1), it is determined at the x-axis of the point of intersection of the regression lines drawn at low and high scan rates; a is the transfer coefficient that is supposed to be close to 0.5 for all presented compounds.
Peak-to-peak separation ΔEp values were determined from the third cycle of each cyclic voltammogram and are gathered in the following table 2.
The standard redox process reversibility evaluation is performed in diluted state, at 5 mM of concentration, at pH 14 buffered with 1 M of KOH. […]

[5] = aqueous KOH 1 M solution, aqueous KOH 1 M, shake-flask, approximate, read-out: solubility estimated, KOH (1M)
[6] = aqueous NaOH 1 M solution, aqueous NaOH 1 M, shake-flask, approximate, read-out: solubility estimated, NaOH (1M)
[7] = aqueous alkaline solution, aqueous alkaline environment, read-out: solubility in aqueous alkaline environment
[8] = aqueous mixture of KOH 0.5 M and NaOH 0.5 M, mixture of KOH 0.5 M and NaOH 0.5 M, shake-flask, approximate, read-out: solubility estimated, KOH 0.5M + NaOH 0.5M

SMILES	DO × 10^−6 [1]	k^0′O × 10^−2 [1]	solubility [2, 5]	solubility [2, 6]	solubility [2, 8]	degradation during the cycling test (1H NMR in D2O before/after) [3]	k^0′O × 10^−2 apparent heterogeneous rate constant [4]	E1/2 half-wave potential [4]	DO × 10^−6 diffusion coefficient [4]	Peak-to-peak separation ΔEp at pH 14 [4]	other results
O=C1c2ccc(S(=O)(=O)O)cc2C(=O)c2cc(S(=O)(=O)O)ccc21 [AQ-2,7-DS]	3.8 × 10^−6 cm^2/s	0.72 × 10^−2 cm/s									
C[N+](C)(C)CCC[n+]1ccc(-c2cc[n+](CCC[N+](C)(C)C)cc2)cc1.[Cl-].[Cl-].[Cl-].[Cl-] [BTMAP-Vi]	3.3 × 10^−6 cm^2/s	2.2 × 10^−2 cm/s									
Cc1c(C(=O)O)c(O)cc2c1C(=O)c1c(O)cccc1C2=O [Compound A]			480 mM (≈ 143 mg/mL)	320 mM (≈ 95.4 mg/mL)	490 mM	degraded into multiple compounds	0.78 × 10^−2 cm/s	−0.59 V vs NHE	3.65 × 10^−6 cm^2/s	56 mV	solubility [2, 7]: > 300 mM; oxidation not originally present in the negolyte ([3]; after cycling): −0.57 V vs Ag/AgCl; chemical stability in the application [3]: low chemical stability
Cc1cc(O)cc2c1C(=O)c1c(O)cccc1C2=O [Compound B, 3,8-dihydroxy-1-methylanthracene-9,10-dione]			580 mM (≈ 147 mg/mL)	500 mM (≈ 127 mg/mL)	630 mM	does not undergo any degradation	0.80 × 10^−2 cm/s	−0.57 V vs NHE	2.99 × 10^−6 cm^2/s	40 mV	solubility [2, 7]: > 300 mM; decrease of redox signature current intensity after cycling ([3]; after thousands of cycles and a few months, ascribed to osmosis dilution): 30-35%
Cc1cc(OCCCC(=O)O)cc2c1C(=O)c1c(O)cccc1C2=O [Compound B-M3CH, 4-((5-hydroxy-4-methyl-9,10-dioxo-9,10-dihydroanthracen-2-yl)oxy)butanoic acid]			150 mM (≈ 51 mg/mL)	150 mM (≈ 51 mg/mL)	~430 mM	does not undergo any degradation	2.47 × 10^−2 cm/s	−0.49 V vs NHE	4.58 × 10^−6 cm^2/s	30 mV	solubility ([2]; aqueous KOH 1 M or NaOH 1 M solution, KOH 1 M or NaOH 1 M, read-out: solubility in ionic environment containing one type of alkaline cation): ~150 mM (≈ 51 mg/mL); solubility estimated, KOH 0.5M + NaOH 0.5M ([2]; mixture of KOH 0.5 M and NaOH 0.5 M, shake-flask, approximate): 430 mM; increase of redox signature current intensity after cycling ([3]; after more than 1000 cycles, 25 days, ascribed to osmosis concentration): about 30%; chemical stability in the application [3]: increased its stability
O=C(O)CCCOc1ccc2c(c1)C(=O)c1ccc(OCCCC(=O)O)cc1C2=O [DBEAQ]	1.58 × 10^−6 cm^2/s	0.70 × 10^−2 cm/s									
O=C1c2ccc(O)cc2C(=O)c2ccc(O)cc21 [DHAQ]	4.8 × 10^−6 cm^2/s	0.70 × 10^−2 cm/s									
O=C1C=C(O)C(=O)C=C1O [DHBQ]	3.66 × 10^−6 cm^2/s	0.21 × 10^−2 cm/s									
O=C1c2ccc(OCCCP(=O)(O)O)cc2C(=O)c2ccc(OCCCP(=O)(O)O)cc21 [DPPEAQ]	1.37 × 10^−6 cm^2/s										
Cc1cc2nc3c(=O)[nH]c(=O)nc-3n(C[C@H](O)[C@H](O)[C@H](O)COP(=O)([O-])O)c2cc1C.[Na+] [Flavine FMN-Na]	1.3 × 10^−6 cm^2/s	0.53 × 10^−2 cm/s									
